Results reported in PubChem BioAssay AID248 (DTP/NCI, 2004).
Inconclusive results and toxic doses are left out. No stated cut-off is given here; in the data, active means T/C of 150% or more; inactive means T/C below 125%. Square brackets hold non-standard residues; d marks the D form. Peptide text beside a SMILES is read from it. * marks the point of attachment. Cbz = O=C(OCc1ccccc1)*; Sar = CNCC(=O)O

Test system: L1210 leukemia ip in BDF1 mice, survival T/C
Assay: NCI In Vivo Anticancer Drug Screen. Data for tumor model L1210 Leukemia (intraperitoneal) in B6D2F1 (BDF1) mice
Conditions: endpoint: mean survival time, higher = longer survival
In short: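 Transplanted-tumor mice were given test agent; controls received vehicle only. Survival readings from the two groups were divided (treated over control).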

[1] = dose: 50.0 mg/kg/injection, schedule: Q01DX001 (ip), vehicle: saline
[2] = dose: 100.0 mg/kg/injection, schedule: Q01DX001 (ip), vehicle: saline
[3] = dose: 200.0 mg/kg/injection, schedule: Q01DX001 (ip), vehicle: saline
[4] = dose: 400.0 mg/kg/injection, schedule: Q01DX001 (ip), vehicle: saline
[5] = dose: 100.0 mg/kg/injection, schedule: Q04DX002 (ip), vehicle: Klucel (hydroxypropylcellulose) (HPC)
[6] = dose: 200.0 mg/kg/injection, schedule: Q04DX002 (ip), vehicle: Klucel (hydroxypropylcellulose) (HPC)
[7] = dose: 100.0 mg/kg/injection, schedule: Q04DX003 (ip), vehicle: saline with Tween-80
[8] = dose: 200.0 mg/kg/injection, schedule: Q04DX003 (ip), vehicle: saline with Tween-80
[9] = dose: 400.0 mg/kg/injection, schedule: Q04DX003 (ip), vehicle: saline with Tween-80
[10] = dose: 100.0 mg/kg/injection, schedule: Q01DX009 (ip), vehicle: Klucel (hydroxypropylcellulose) (HPC)
[11] = dose: 200.0 mg/kg/injection, schedule: Q01DX009 (ip), vehicle: Klucel (hydroxypropylcellulose) (HPC)
[12] = dose: 400.0 mg/kg/injection, schedule: Q01DX009 (ip), vehicle: Klucel (hydroxypropylcellulose) (HPC)
[13] = dose: 100.0 mg/kg/injection, schedule: Q04DX003 (ip), vehicle: Klucel (hydroxypropylcellulose) (HPC)
[14] = dose: 200.0 mg/kg/injection, schedule: Q04DX003 (ip), vehicle: Klucel (hydroxypropylcellulose) (HPC)
[15] = dose: 400.0 mg/kg/injection, schedule: Q04DX003 (ip), vehicle: Klucel (hydroxypropylcellulose) (HPC)
[16] = dose: 100.0 mg/kg/injection, schedule: Q01DX009 (ip), vehicle: saline

Measured: T/C

CC(=O)OCC(=O)[C@@]1(O)CC[C@H]2[C@@H]3CCC4=CC(=O)CC[C@]4(C)C3=CC[C@@]21C
inactive: dose: 12.5 mg/kg/injection, schedule: Q04DX003 (ip), vehicle: saline with Tween-80 95 % of control | dose: 25.0 mg/kg/injection, schedule: Q04DX003 (ip), vehicle: saline with Tween-80 93 % of control | dose: 50.0 mg/kg/injection, schedule: Q04DX003 (ip), vehicle: saline with Tween-80 90 % of control

COC(=O)CN(C)C(=O)CNC(=O)OCc1ccccc1 (Cbz-Gly-[Sar]-OMe)
inactive: dose: 100.0 mg/kg/injection, schedule: Q04DX003 (ip), vehicle: saline 97 % of control | dose: 200.0 mg/kg/injection, schedule: Q04DX003 (ip), vehicle: saline 90 % of control | dose: 400.0 mg/kg/injection, schedule: Q04DX003 (ip), vehicle: saline 100 % of control

CC(Cc1ccccc1)Nc1ccccc1 (configuration not stated)
inactive: [1] 93 % of control | [2] 100 % of control | [3] 93 % of control | [4] 93 % of control

COc1cccc(C(=O)CC(O)(C(F)(F)F)C(F)(F)F)c1
inactive: dose: 50.0 mg/kg/injection, schedule: Q04DX003 (ip), vehicle: other 100 % of control | dose: 100.0 mg/kg/injection, schedule: Q04DX003 (ip), vehicle: other 96 % of control | dose: 200.0 mg/kg/injection, schedule: Q04DX003 (ip), vehicle: other 98 % of control | dose: 400.0 mg/kg/injection, schedule: Q04DX003 (ip), vehicle: other 104 % of control

CC(=O)NC1(C(=O)O)CSSC1
inactive: dose: 50.0 mg/kg/injection, schedule: Q01DX005 (ip), vehicle: saline 102 % of control | dose: 100.0 mg/kg/injection, schedule: Q01DX005 (ip), vehicle: saline 100 % of control | dose: 200.0 mg/kg/injection, schedule: Q01DX005 (ip), vehicle: saline 93 % of control | dose: 400.0 mg/kg/injection, schedule: Q01DX005 (ip), vehicle: saline 102 % of control

CCCCCCCCN(CCCCCCCC)CC(O)c1ccc2cc(Br)c3ccccc3c2c1 (configuration not stated)
inactive: dose: 100.0 mg/kg/injection, schedule: Q04DX003 (ip), vehicle: acetone 113 % of control | dose: 200.0 mg/kg/injection, schedule: Q04DX003 (ip), vehicle: acetone 120 % of control | dose: 400.0 mg/kg/injection, schedule: Q04DX003 (ip), vehicle: acetone 103 % of control

NC1(C(=O)O)C2CC3CC(C2)CC1C3 (configuration not stated)
inactive: dose: 50.0 mg/kg/injection, schedule: Q01DX009 (ip), vehicle: other 100 % of control | dose: 100.0 mg/kg/injection, schedule: Q01DX009 (ip), vehicle: other 105 % of control | dose: 100.0 mg/kg/injection, schedule: Q04DX003 (ip), vehicle: alcohol 96 % of control | dose: 200.0 mg/kg/injection, schedule: Q01DX009 (ip), vehicle: other 92 % of control | dose: 200.0 mg/kg/injection, schedule: Q04DX003 (ip), vehicle: alcohol 95 % of control

O=C(N/C(=C/c1ccc([N+](=O)[O-])cc1)C(=O)c1ccccc1)c1ccc([N+](=O)[O-])cc1
inactive: [1] 101 % of control | [2] 103 % of control | [3] 97 % of control | [4] 90 % of control

CN1C2CC(=O)CC1C1CC2C1
inactive: dose: 12.5 mg/kg/injection, schedule: Q04DX002 (ip), vehicle: Klucel (hydroxypropylcellulose) (HPC) 98 % of control | dose: 25.0 mg/kg/injection, schedule: Q04DX002 (ip), vehicle: Klucel (hydroxypropylcellulose) (HPC) 94 % of control

Cc1[nH]c2cc(O)c(O)c(C)c2c1C
inactive: [2] 96 % of control

O=C1OI(Cl)c2ccccc21
inactive: [5] 88 % of control | [6] 120 % of control

COc1ccc(C2C3CC4C(OC(=O)C42)C3I)cc1 (configuration not stated)
inactive: dose: 100.0 mg/kg/injection, schedule: Q01DX009 (ip), vehicle: saline with Tween-80 97 % of control | [7] 95 % of control | dose: 200.0 mg/kg/injection, schedule: Q01DX009 (ip), vehicle: saline with Tween-80 98 % of control | [8] 95 % of control | dose: 400.0 mg/kg/injection, schedule: Q01DX009 (ip), vehicle: saline with Tween-80 88 % of control | [9] 87 % of control

Cc1cccc(C)c1NC(=S)N(CCC#N)Cc1ccccc1
inactive: [10] 107 % of control | [11] 94 % of control | [12] 96 % of control

Cc1ccccc1N(C)C
inactive: dose: 50.0 mg/kg/injection, schedule: Q04DX002 (ip), vehicle: saline with Tween-80 106 % of control | dose: 100.0 mg/kg/injection, schedule: Q04DX002 (ip), vehicle: saline with Tween-80 98 % of control | dose: 200.0 mg/kg/injection, schedule: Q04DX002 (ip), vehicle: saline with Tween-80 92 % of control

CN=C(NCCCOC)c1ccc(NC(=O)c2ccc(C(=O)Nc3ccc(C(=NC)NCCCOC)cc3)c([N+](=O)[O-])c2)cc1
inactive: dose: 1.0 mg/kg/injection, schedule: Q01DX Z (ip), vehicle: carboxymethylcellulose (CMC) 91 % of control | dose: 1.88 mg/kg/injection, schedule: Q01DX Z (ip), vehicle: saline 92 % of control | dose: 2.0 mg/kg/injection, schedule: Q01DX Z (ip), vehicle: carboxymethylcellulose (CMC) 91 % of control | dose: 3.75 mg/kg/injection, schedule: Q01DX Z (ip), vehicle: saline 98 % of control | dose: 4.0 mg/kg/injection, schedule: Q01DX Z (ip), vehicle: carboxymethylcellulose (CMC) 92 % of control | dose: 7.5 mg/kg/injection, schedule: Q01DX Z (ip), vehicle: saline 104 % of control | dose: 8.0 mg/kg/injection, schedule: Q01DX Z (ip), vehicle: carboxymethylcellulose (CMC) 95 % of control | dose: 15.0 mg/kg/injection, schedule: Q01DX Z (ip), vehicle: carboxymethylcellulose (CMC) 101 % of control | dose: 15.0 mg/kg/injection, schedule: Q01DX Z (ip), vehicle: saline 92 % of control

COc1cc(Nc2ccc(Oc3ccc(O)c(CN)c3)cc2)c2ncccc2c1
inactive: dose: 75.0 mg/kg/injection, schedule: Q01DX001 (ip), vehicle: other 103 % of control | dose: 150.0 mg/kg/injection, schedule: Q01DX001 (ip), vehicle: other 97 % of control | dose: 300.0 mg/kg/injection, schedule: Q01DX001 (ip), vehicle: other 100 % of control

S=c1sscc1-c1ccccc1
inactive: dose: 50.0 mg/kg/injection, schedule: Q04DX003 (ip), vehicle: Klucel (hydroxypropylcellulose) (HPC) 95 % of control | [10] 108 % of control | [13] 111 % of control | [11] 112 % of control | [14] 95 % of control | [12] 110 % of control | [15] 98 % of control

Nc1ccc2c(c1)Cc1c(F)ccc(F)c1-2
inactive: dose: 50.0 mg/kg/injection, schedule: Q01DX001 (ip), vehicle: carboxymethylcellulose (CMC) 107 % of control | dose: 100.0 mg/kg/injection, schedule: Q01DX001 (ip), vehicle: carboxymethylcellulose (CMC) 102 % of control | dose: 200.0 mg/kg/injection, schedule: Q01DX001 (ip), vehicle: carboxymethylcellulose (CMC) 109 % of control

CC(C)[N+](C(C)C)(C(C)C)C(C)C.[I][Pb]([I])([I])[I]
inactive: [7] 95 % of control | [8] 98 % of control | [9] 93 % of control

C[n+]1ccn(CC(=O)c2ccccc2)c1
inactive: dose: 25.0 mg/kg/injection, schedule: Q01DX009 (ip), vehicle: saline 98 % of control | dose: 50.0 mg/kg/injection, schedule: Q01DX009 (ip), vehicle: saline 112 % of control | [16] 93 % of control

OC1CCNc2ccccc21 (configuration not stated)
inactive: [16] 104 % of control | dose: 200.0 mg/kg/injection, schedule: Q01DX009 (ip), vehicle: saline 105 % of control | dose: 400.0 mg/kg/injection, schedule: Q01DX009 (ip), vehicle: saline 112 % of control

O=C(Nc1nccs1)Nc1ccccc1Cl
inactive: [10] 96 % of control | [5] 91 % of control | [11] 91 % of control | [6] 98 % of control | [12] 96 % of control | dose: 400.0 mg/kg/injection, schedule: Q04DX002 (ip), vehicle: Klucel (hydroxypropylcellulose) (HPC) 107 % of control

O=C(O)C1CC2C3(Cl)C(Cl)=C(Cl)C(Cl)C2(CC1c1c2ccc(=O)c(O)c-2oc2c(O)c(O)ccc12)C3(Cl)Cl (configuration not stated)
inactive: [13] 96 % of control | [14] 94 % of control | [15] 96 % of control
